Test results published in patent US20230263786A1, “MODULATION OF DRUG-DRUG INTERACTIONS OF VADADUSTAT” (Akebia Therapeutics, Inc., priority 2020, published 2023).
Where “and” joins values, the source holds several entries; their conditions need not be identical. Equal values may be shown once. Read-outs that look alike come from different tables or passages of the source.

Tests used:
human PHD1 = human PHD1 (Homo sapiens, UniProt Q96KS0); assay: PHD inhibitory action, PHD1; assay type: biochemical; conditions: in vitro
erythropoietin = assay: Blood erythropoietin concentration increasing action; assay type: in vivo; conditions: normal rat, single oral administration
[1] = Influence of meal on pharmacokinetics, single 450 mg dose; conditions: male, human, in vivo, oral
Procedure: The median tmax of this drug was prolonged by postprandial administration for about 1.5 hours as compared with fasting.

[2] = [14C]-labeled Compound 1 650 mg metabolism and excretion; assay type: in vivo, human
Excerpt: Compound 1 is metabolized via UGT, mainly producing O-glucuronide conjugates.
The urinary excretion rate of this drug and acyl glucuronide is less than 1% of the total radioactivity.

CYP2B6 = target: T1, CYP2B6 (Homo sapiens, UniProt P20813); assay: CYP2B6 inhibition in vitro; assay type: in vitro ADME
T1 sequence (P20813 1-491): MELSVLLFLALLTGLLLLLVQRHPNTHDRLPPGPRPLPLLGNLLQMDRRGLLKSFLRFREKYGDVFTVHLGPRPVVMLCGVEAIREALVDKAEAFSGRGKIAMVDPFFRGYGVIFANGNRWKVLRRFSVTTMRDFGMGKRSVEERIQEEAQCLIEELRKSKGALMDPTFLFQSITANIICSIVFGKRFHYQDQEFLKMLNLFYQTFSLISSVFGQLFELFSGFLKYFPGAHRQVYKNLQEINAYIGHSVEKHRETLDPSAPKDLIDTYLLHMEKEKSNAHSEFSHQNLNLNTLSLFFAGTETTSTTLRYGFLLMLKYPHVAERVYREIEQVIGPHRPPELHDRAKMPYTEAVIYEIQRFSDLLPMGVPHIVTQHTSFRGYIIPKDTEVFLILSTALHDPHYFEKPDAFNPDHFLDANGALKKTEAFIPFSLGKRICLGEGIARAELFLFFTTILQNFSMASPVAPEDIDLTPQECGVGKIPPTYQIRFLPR

CYP2C9 = CYP2C9 (Homo sapiens, UniProt P11712); assay: CYP2C9 inhibition in vitro; assay type: in vitro ADME
[3] = Phase I furosemide interaction study; assay type: in vivo, human; conditions: furosemide 40 mg and vadadustat 600 mg once daily
Procedure: The study included 3 periods as follow: a 28-day screening period, 7-21 day in clinic period, and a 30-day follow up period post last dose.
On Days 3 to 6, subjects received vadadustat 600 mg (once daily).

[4] = Phase I single-dose study, moderate hepatic impairment versus normal hepatic function; assay type: in vivo, human; conditions: for AUC(0-inf) / AUC(0-t) / Cmax / Vd/F / half-life / Tmax / CL renal: both sexes, human, oral, 450 mg; for AUC(0-inf) / AUC(0-t) / Cmax / Vd/F / half-life / Tmax: plasma; for half-life: read-out: Elimination Half-life (t1/2) (converted); for Tmax: median; for CL renal: urine, read-out: CLr, renal clearance (converted)
Procedure: A phase I, open-label, parallel-group, single-dose study was conducted to evaluate the pharmacokinetics (PK) of 450 mg vadadustat administered in adults with moderate hepatic impairment (Child-Pugh Class B) versus those with normal hepatic function. The pharmacokinetic (pK) parameters of Compound 1 were characterized. Safety and tolerability were assessed throughout the study.
Inclusion criteria: participants were male and female adults between 18 and 70 years of age, with either normal hepatic function or moderate hepatic impairment based on the Child-Pugh classification (Child-Pugh Class B [score 7-9]). Moderate hepatic impairment was defined by the presence and severity of elevated bilirubin levels, decreased serum albumin levels, elevated international normalized ratios >2.20, ascites, and hepatic encephalopathy.
Pharmacokinetics. […] PK parameters Ae0-72, Fe %0-72, and CL, were estimated from the urine concentration-time profiles.
8 subjects with hepatic impairment and 8 matched subjects with normal hepatic function were enrolled in the study. All subjects received a single oral 450-mg dose of vadadustat on Day 1 and were required to fast for at least 10 hours before dosing and for 4 hours after dosing.

[5] = tested on: UGT1A1, UGT1A7, UGT1A8 and UGT1A9; assay: UGT isoforms generating O-glucuronide in vitro; assay type: in vitro ADME, human
[6] = Phase I ferrous sulfate tablet interaction study;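 also: crossover in fasted human subjects with four-day washout between periods, plasma glucuronide metabolite pharmacokinetics, ratios computed as metabolite over parent for AUC and Cmax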
Procedure: Pharmacokinetics. […] The ratio of metabolite to parent was calculated for each glucuronide metabolite for AUC(0-t); and AUC(0-inf) and Cmax.
Comparative Bioavailability. […] Factors incorporated in the model included: Sequence, Subject (Sequence), Period, and Treatment.
Treatment of Subjects. […] All subjects are dosed on the same day for Day 1 of Confinement Period 1, and are crossed over to the alternate treatment and are dosed on the same day for Day 1 of Confinement Period 2. Both treatments are administered in a fasted state, and a four-day Washout Period separates each Confinement Period.

[7] = After Meal, healthy adult males
[8] = single 450 mg, Moderate Hepatic Impairment, mean ± SD
[9] = single 450 mg, Moderate Hepatic Impairment
[10] = single 450 mg, Normal Liver Function, mean ± SD
[11] = single 450 mg, Normal Liver Function
[12] = Compound 1+Iron compared to Compound 1 alone

CYP2C9, sequence (P11712 whole entry): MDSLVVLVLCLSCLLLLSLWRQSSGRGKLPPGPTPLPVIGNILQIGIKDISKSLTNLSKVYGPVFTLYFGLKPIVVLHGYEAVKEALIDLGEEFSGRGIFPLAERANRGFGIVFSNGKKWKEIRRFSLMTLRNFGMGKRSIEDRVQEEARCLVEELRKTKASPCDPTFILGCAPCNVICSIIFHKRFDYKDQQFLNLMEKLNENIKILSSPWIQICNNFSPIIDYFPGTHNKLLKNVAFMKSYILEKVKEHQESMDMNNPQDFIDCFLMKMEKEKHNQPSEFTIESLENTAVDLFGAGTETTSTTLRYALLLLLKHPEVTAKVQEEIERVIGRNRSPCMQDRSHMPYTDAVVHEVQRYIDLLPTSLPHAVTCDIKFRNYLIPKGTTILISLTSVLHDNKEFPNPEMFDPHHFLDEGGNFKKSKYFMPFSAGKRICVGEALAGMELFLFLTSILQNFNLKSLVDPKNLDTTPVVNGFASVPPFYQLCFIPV
human PHD1, sequence (Q96KS0 whole entry): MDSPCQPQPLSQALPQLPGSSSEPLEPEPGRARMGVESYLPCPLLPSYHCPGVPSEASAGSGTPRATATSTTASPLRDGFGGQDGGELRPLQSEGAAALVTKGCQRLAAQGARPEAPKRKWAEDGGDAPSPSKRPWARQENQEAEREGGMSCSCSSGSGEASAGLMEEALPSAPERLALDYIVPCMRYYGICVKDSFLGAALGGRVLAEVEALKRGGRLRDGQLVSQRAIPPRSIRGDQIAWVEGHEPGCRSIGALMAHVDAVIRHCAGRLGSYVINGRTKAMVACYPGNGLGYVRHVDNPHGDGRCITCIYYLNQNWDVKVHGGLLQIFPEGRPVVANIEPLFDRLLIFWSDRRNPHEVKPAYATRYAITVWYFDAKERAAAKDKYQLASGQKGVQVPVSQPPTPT

O=C(O)CNC(=O)c1ncc(-c2cccc(Cl)c2)cc1O [Compound 1, {[5-(3-chlorophenyl)-3-hydroxypyridine-2-carbonyl]amino}acetic acid]
IC50 (human PHD1): 0.0154 µM
blood erythropoietin levels (erythropoietin): elevated
AUC(0-inf) [1, 7]: 351 ± 101 µg·h/mL
Cmax [1, 7]: 46.3 ± 12.2 µg/mL
Tmax ([1]; After Meal, healthy adult males, read-out: tmax): 3.52 h
AUC(0-inf) ([1]; Fasting, healthy adult males): 371 ± 100 µg·h/mL
Cmax ([1]; Fasting, healthy adult males): 63.1 ± 14.6 µg/mL
Tmax ([1]; Fasting, healthy adult males, read-out: tmax): 2 h
Tmax ([1]; compared with fasting, read-out: prolongation of median tmax by postprandial administration): ~1.5 h
total radioactivity administered found in urine ([2]; single 650 mg [14C]-labeled, by 72 hours after administration): 58.9%
share of the total radioactivity (AUC0-∞) in plasma ([2]; single oral 650 mg [14C]-labeled Compound 1, healthy adult males): 75%
inhibitory effect on CYP2B6 (CYP2B6): inhibitory effect
inhibitory effect on CYP2C9 (CYP2C9): inhibitory effect
serious TEAEs [3]: No serious TEAEs
AUC(0-inf) ([4]; AUC0-inf, Geometric LSM, Total Compound 1, single 450 mg, Moderate Hepatic Impairment): 414 µg·h/mL
AUC(0-inf) ([4]; AUC0-inf, Geometric LSM, Total Compound 1, single 450 mg, Normal Liver Function): 394 µg·h/mL
AUC(0-t) ([4]; AUC0-last, Geometric LSM, Total Compound 1, single 450 mg, Moderate Hepatic Impairment): 410 µg·h/mL
AUC(0-t) ([4]; AUC0-last, Geometric LSM, Total Compound 1, single 450 mg, Normal Liver Function): 389 µg·h/mL
Cmax ([4]; Cmax, Geometric LSM, Total Compound 1, single 450 mg, Moderate Hepatic Impairment): 52 µg/mL
Cmax ([4]; Cmax, Geometric LSM, Total Compound 1, single 450 mg, Normal Liver Function): 50 µg/mL
Vd/F ([4]; Volume of distribution (Vd/F), Unbound Compound 1, single 450 mg, Moderate Hepatic Impairment, mean ± SD): 1490 ± 542 L
Vd/F ([4]; Volume of distribution (Vd/F), Unbound Compound 1, single 450 mg, Normal Liver Function, mean ± SD): 1330 ± 222 L
AUC(0-inf) ([4]; single 450 mg, Moderate Hepatic Impairment, mean ± SD, read-out: AUC0-inf, plasma, total): 436 ± 156 µg·h/mL
AUC(0-t) ([4]; single 450 mg, Moderate Hepatic Impairment, mean ± SD, read-out: AUC0-last, plasma, total): 432 ± 153 µg·h/mL
Cmax ([4]; single 450 mg, Moderate Hepatic Impairment, mean ± SD, read-out: Cmax, plasma, total): 53 ± 12 µg/mL
half-life [4, 8]: 7.8 h
Vd/F ([4]; single 450 mg, Moderate Hepatic Impairment, mean ± SD, read-out: Volume of distribution (Vd/F), total): 12.3 ± 4 L
Tmax [4, 9]: 2 h
AUC(0-inf) ([4]; single 450 mg, Normal Liver Function, mean ± SD, read-out: AUC0-inf, plasma, total): 397 ± 72 µg·h/mL
AUC(0-t) ([4]; single 450 mg, Normal Liver Function, mean ± SD, read-out: AUC0-last, plasma, total): 395 ± 72 µg·h/mL
Cmax ([4]; single 450 mg, Normal Liver Function, mean ± SD, read-out: Cmax, plasma, total): 53 ± 15 µg/mL
half-life [4, 10]: 5.8 h
Vd/F ([4]; single 450 mg, Normal Liver Function, mean ± SD, read-out: Volume of distribution (Vd/F), total): 9.6 ± 1.9 L
Tmax [4, 11]: 2.5 h
CL renal [4, 9]: 0.105 mL/min
CL renal [4, 11]: 0.122 mL/min
impact of moderate hepatic impairment on total systemic exposure ([4]; single 450 mg): no significant impact on total systemic exposure
AUC0-inf, Geometric LSM, Unbound Compound 1 [4, 9]: 3.47 µg·h/mL
AUC0-last, Geometric LSM, Unbound Compound 1 [4, 9]: 3.44 µg·h/mL
Ae0-72, cumulative amount excreted in urine up to 72 hours [4, 9]: 2.45 ± 1.611 mg
Cmax, Geometric LSM, Unbound Compound 1 [4, 9]: 0.433 µg/mL
Fe%0-72, cumulative fraction excreted in urine [4, 9]: 0.545% and 0.545 ± 0.3580%
AUC0-inf, Unbound Compound 1 [4, 8]: 3.78 ± 1.738 µg·h/mL
AUC0-last, Unbound Compound 1 [4, 8]: 3.75 ± 1.709 µg·h/mL
Clearance (CL/F), Unbound Compound 1 [4, 8]: 140 ± 56.02 L/h
Clearance (CL/F), total [4, 8]: 1.2 ± 0.4 L/h
Cmax, Unbound Compound 1 [4, 8]: 0.451 ± 0.1332 µg/mL
Elimination Half-life (t1/2) [4, 8]: 7.75 ± 2.5 h
AUC0-inf, Geometric LSM, Unbound Compound 1 [4, 11]: 2.79 µg·h/mL
AUC0-last, Geometric LSM, Unbound Compound 1 [4, 11]: 2.78 µg·h/mL
Ae0-72, cumulative amount excreted in urine up to 72 hours [4, 11]: 2.76 ± 1.214 mg
Cmax, Geometric LSM, Unbound Compound 1 [4, 11]: 0.360 µg/mL
Fe%0-72, cumulative fraction excreted in urine [4, 11]: 0.614% and 0.614 ± 0.2698%
AUC0-inf, Unbound Compound 1 [4, 10]: 2.91 ± 0.9049 µg·h/mL
AUC0-last, Unbound Compound 1 [4, 10]: 2.90 ± 0.9001 µg·h/mL
Clearance (CL/F), Unbound Compound 1 [4, 10]: 167 ± 49.10 L/h
Clearance (CL/F), total [4, 10]: 1.2 ± 0.3 L/h
Cmax, Unbound Compound 1 [4, 10]: 0.378 ± 0.1131 µg/mL
Elimination Half-life (t1/2) [4, 10]: 5.81 ± 1.4 h
serious AEs ([4]; single 450 mg, both groups): No serious AEs
dose excreted in the urine as Compound 1 ([4]; single 450 mg, both moderate hepatic impairment and normal hepatic function): < 1%
UGT isoforms involved in the generation of O-glucuronide [5]: UGT1A1, UGT1A7, UGT1A8 and UGT1A9
lowering of Cmax [6, 12]: approximately 51%
lowering of mean plasma AUC (AUC0-t and AUC0-inf) [6, 12]: approximately 54%
AEs, SAEs, deaths ([6]; single 450 mg dose with or without ferrous sulfate): no AEs, SAEs, or deaths
